For data set [1] the following is noted: sensor of U.S. Pat. No. 7,977,120 B2; quenched by catechol group; cited from earlier work.
The nature of data set [2]: Fluorescence titration of sensor with glutamate. The class given is binding. The note with it: for F.E. / Ka: Table 2, analyte glutamate; for Ka: pH 5.0, 37° C. As to the method:
(§1) Fluorescence spectra were recorded on a Shimadzu RF-5301 PC spectrofluorometer at 37° C. A 1 mg/mL stock solution of I-2 in DMSO was prepared. A stock solution of I-2 in buffer (1×10^−5 M, 25 mM HEPES, 50 mM Na2S2O3, pH=5.0) was prepared. Norepinephrine, dopamine, epinephrine, and glutamate stock solutions were prepared by separately dissolving the analytes at the concentration to be used in the titration with the buffered stock solution of I-2 (thus avoiding dilution of I-2 during the experiment). I-2 was titrated with aliquots of analyte solution. The sensor was excited at 488 nm with slit widths of 5 nm.
(§2) Fluorescence spectra were recorded on a Shimadzu RF-5301 PC spectrofluorometer at 37° C. A separate 1 mg/mL stock solution of each coumarin-3-aldehyde derivative in DMSO was prepared. An aqueous stock solution of each derivative (10 μM) in buffer (25 mM HEPES, 50 mM Na2S2O3, pH=5.0) was prepared. Norepinephrine, dopamine, glutamate, and epinephrine stock solutions were prepared by separately dissolving the solid analytes at the concentration to be used in the titration with the buffered stock solutions described above and thus, avoiding dilution of the sensor during the experiment. The benzene-based NS521 derivatives were excited at 488 nm. The thiophene-based derivatives were excited at 515 nm.

A short description of data set [3]: Fluorescence titration of sensor with dopamine. The class given is binding. Conditions: Table 2, analyte dopamine; for Ka: pH 5.0, 37° C. As to the method: as §1, §2
Data set [4] is described as follows: Fluorescence titration of sensor with norepinephrine. The note with it: Table 2, analyte norepinephrine; for Ka: pH 5.0, 37° C. Type of data set: binding. How it is done:
as §1, §2

Data set [5] is described as follows: Solubility in buffer for spectroscopic studies. The class given is physicochemical. Conditions: 25 mM HEPES, 50 mM Na2S2O3, pH 5.0; DMSO cosolvent required. How it is done:
Steady-state fluorescence spectroscopic studies were performed using a Horiba Scientific Fluorolog-3 Model FL3C-111 spectrofluorometer and data was collected and analyzed using HJY FluorEssence™ 3.5.1.20 software package. UV-visible spectra were obtained on a Varian Cary 1E UV-visible spectrophotometer. A stock solution of each benzene- or thiophene-based coumarin-3-aldehyde derivative (1 μM) in buffer (25 mM HEPES, 50 mM Na2S2O3, pH=5.0) was prepared. Each solution contained 1% (v/v) DMSO as a cosolvent except as noted. The slit width was 2 nm for both excitation and emission. The bound benzene- and thiophene-coumarin-3-aldehyde derivatives contained 500 mM glutamate (pH=5.0).

Data set [6] relates to norepinephrine-enriched chromaffin cells. As to the kind of experiment: Live-cell confocal imaging with NS539, norepinephrine-enriched cells. The class given is cell-based, bovine. Conditions: 10 μM. How it is done: (§3) Norepinephrine- and epinephrine-secreting chromaffin cells were isolated from bovine adrenal glands, separately incubated with NS539 (2b, 10 μM), and imaged using confocal fluorescence microscopy. The live cells were imaged at 458 nm which would excite any potential unbound sensor and at 514 nm which would excite the bound sensor. […] The ratio of the mean corrected total cell fluorescence intensity of norepinephrine- over epinephrine-enriched cells was approximately 27-fold (FIG. 19G).
(§4) Chromaffin cells were prepared as previously described. Approximately 3 mL of each culture media containing suspended epinephrine- and norepinephrine-enriched cells was centrifuged at 1,000 rpm for 5 min. The pellets were suspended in 2 mL Dulbecco's Modified Eagle Medium (DMEM). NS539 was added (10 μM final concentration) and each cell suspension containing sensor incubated at 37° C. for 30 min. The cells were centrifuged, the supernatant removed, and washed twice with PBS buffer. Next, the cells were taken up into 6 mL standard cell bath solution and plated onto No. 1.5 γ-irradiated poly-D-lysine coated 35 mm glass-bottom dishes (MatTek Corporation). The cells incubated on the dishes 37° C. with 5% CO2 for 1 hr prior to imaging to promote adhesion. Live cell imaging studies were performed using a Zeiss LSM 510 META laser scanning confocal microscope (Carl Zeiss Microscopy, LLC) equipped with a C-Apochromat 63x/1.2 water immersion objective lens (Carl Zeiss Microscopy, LLC). The excitation wavelengths were 458 nm and 514 nm (pixel time: 6.4 μs, detector gain: 845, amplifier gain: 1.00, amplifier offset: −0.05, pinhole: 328 μm). Image acquisition was performed using Zeiss AIM 4.2 software package (Carl Zeiss Microscopy, LLC). To compare the fluorescence intensities of the norepinephrine- vs. the epinephrine-enriched cells, the mean corrected total cell fluorescence intensities were obtained using ImageJ (National Institute of Health).

Data set [7] relates to epinephrine-enriched chromaffin cells. As to the kind of experiment: Live-cell confocal imaging with NS539, epinephrine-enriched cells. Conditions: 10 μM. The class given is cell-based, bovine. How it is done: as §3, §4
The conditions of data set [8]: 1.0 μM in water (pH 7); fluorescence standard; cited from earlier work.
[9] abbreviates: benzene-based compounds I, excited at 488 nm.
Setting [10] is: excitation at 514 nm (bound sensor).
Where [11] appears, read: ± standard deviation (n=6), 535-590 nm bandpass filter.
Where [12] appears, read: thiophene-based compounds II, excited at 515 nm.

Each structure is given as a SMILES string.

Turning to `CCN(CC)c1ccc2c(CCCCCN(C)Cc3ccccc3B(O)O)c(C=O)c(=O)oc2c1` ['120 sensor], the “mode of fluorescence response” value in data set [1] is reported as “turn-off mode”.

Turning to `CCN(CC)c1ccc2c(-c3ccccc3)c(C=O)c(=O)oc2c1` [Compound I-1], the F.E. in data set [2] (setting [9]) turned out to be 10.45; in data set [3] (setting [9]), 3.23; in data set [4] (setting [9]), 6.62. The Ka in data set [2] (setting [9]) came to 9.43 M⁻¹; in data set [3] (setting [9]), 68.07 M⁻¹; in data set [4] (setting [9]) it was 68.68 M⁻¹.

`CCN(CC)c1ccc2c(-c3ccc(OC)c(OC)c3)c(C=O)c(=O)oc2c1` [Compound I-3]: the F.E. in data set [2] (setting [9]) stood at 6.56; in data set [3] (setting [9]), 2.69; in data set [4] (setting [9]), 4.11. Besides, the Ka in data set [2] (setting [9]) was 10.21 M⁻¹; in data set [3] (setting [9]) it was 177.46 M⁻¹; in data set [4] (setting [9]) it was 107.17 M⁻¹.

As for `CCN(CC)c1ccc2c(-c3cc(OC)c(OC)c(OC)c3)c(C=O)c(=O)oc2c1` [Compound I-4], the F.E. in data set [2] (setting [9]) is 5.57; in data set [3] (setting [9]) it was 1.62; in data set [4] (setting [9]), 2.56. Also, the results for the Ka in data set [2] (setting [9]), in data set [3] (setting [9]) and in data set [4] (setting [9]) were 10.25 M⁻¹, 205.13 M⁻¹ and 159.08 M⁻¹, respectively. Also, the “selectivity of fluorescent response for glutamate over dopamine and norepinephrine” value in data set [2] (series 1 sensors, in words) is reported as “best glutamate-selective sensor”.

As for `CCN(CC)c1ccc2c(-c3cccc(C)c3)c(C=O)c(=O)oc2c1` [Compound I-5], the F.E. worked out at 9.97 in data set [2] (setting [9]), 3.17 in data set [3] (setting [9]) and 6.59 in data set [4] (setting [9]). In addition, the Ka is 9.17 M⁻¹ in data set [2] (setting [9]), 74.13 M⁻¹ in data set [3] (setting [9]) and 68.40 M⁻¹ in data set [4] (setting [9]).

`CCN(CC)c1ccc2c(-c3ccc(OC)c(C)c3)c(C=O)c(=O)oc2c1` [Compound I-6]: the F.E. was determined as 6.36 in data set [2] (setting [9]), 2.41 in data set [3] (setting [9]) and 3.89 in data set [4] (setting [9]). The Ka in data set [2] (setting [9]) was determined as 10.25 M⁻¹; in data set [3] (setting [9]), 192.05 M⁻¹; in data set [4] (setting [9]) it was 135.98 M⁻¹.

With `CCOC(=O)c1ccc(-c2c(C=O)c(=O)oc3cc(N(CC)CC)ccc23)cc1` [Compound I-7], the solubility in buffer result in data set [5] is recorded as “solubility issues”. Also, the results for the F.E. in data set [2] (setting [9]), in data set [3] (setting [9]) and in data set [4] (setting [9]) were 4.68, 1.13 and 1.79, respectively. The figures for the Ka in data set [2] (setting [9]), in data set [3] (setting [9]) and in data set [4] (setting [9]) were 6.95 M⁻¹, 107.45 M⁻¹ and 81.50 M⁻¹, respectively.

Consider `CCN(CC)c1ccc2c(-c3ccc(OC)c(F)c3)c(C=O)c(=O)oc2c1` [Compound I-8], for which the results for the F.E. in data set [2] (setting [9]), in data set [3] (setting [9]) and in data set [4] (setting [9]) were 9.31, 3.06 and 6.36, respectively. The Ka in data set [2] (setting [9]) was 8.96 M⁻¹; in data set [3] (setting [9]), 92.94 M⁻¹; in data set [4] (setting [9]) it was 70.18 M⁻¹.

Turning to `CCN(CC)c1ccc2c(-c3ccc(-c4ccccc4)cc3)c(C=O)c(=O)oc2c1` [Compound I-9], the solubility in buffer entry in data set [5] is listed as “solubility issues”. In addition, the F.E. in data set [2] (setting [9]) is 6.22; in data set [3] (setting [9]) it was 1.62; in data set [4] (setting [9]), 2.57. Moreover, the Ka worked out at 13.84 M⁻¹ in data set [2] (setting [9]), 203.29 M⁻¹ in data set [3] (setting [9]) and 148.79 M⁻¹ in data set [4] (setting [9]).

For `CCN(CC)c1ccc2c(-c3cccc4ccccc34)c(C=O)c(=O)oc2c1` [Compound I-10], the values for the F.E. in data set [2] (setting [9]), in data set [3] (setting [9]) and in data set [4] (setting [9]) were 6.81, 2.86 and 4.30, respectively. For the same compound, the Ka is 10.08 M⁻¹ in data set [2] (setting [9]), 170.10 M⁻¹ in data set [3] (setting [9]) and 103.56 M⁻¹ in data set [4] (setting [9]).

In the case of `CCN(CC)c1ccc2c(-c3ccc(SC)cc3)c(C=O)c(=O)oc2c1` [Compound I-11], the F.E. in data set [2] (setting [9]) was found to be 9.76; in data set [3] (setting [9]), 3.10; in data set [4] (setting [9]) it was 6.46. The figures for the Ka in data set [2] (setting [9]), in data set [3] (setting [9]) and in data set [4] (setting [9]) were 8.40 M⁻¹, 87.11 M⁻¹ and 68.82 M⁻¹, respectively.

In the case of `CCN(CC)c1ccc2c(-c3cccs3)c(C=O)c(=O)oc2c1` [II-1], the “ratio of mean corrected total cell fluorescence intensity of norepinephrine- over epinephrine-enriched cells” value in data set [6] is “approximately 27 fold”. Further, the “cell fluorescence, confocal microscopy” value in data set [6] (setting [10]) is “strong punctate fluorescence”; in data set [6] (λex = 458 nm (unbound sensor)), “no measurable fluorescence response”; in data set [7] (excitation at 458 nm (unbound sensor)), “no fluorescence”; in data set [7] (setting [10]) it was “marginal fluorescence response”. The “mean corrected total cell fluorescence intensity” value was determined as 51.0±2.6 in data set [6] (setting [11]) and 1.86±0.98 in data set [7] (setting [11]). The F.E. in data set [2] (setting [12]) came out at 57.17; in data set [3] (setting [12]), 25.42; in data set [4] (setting [12]) it was 47.95. The Ka is 7.32 M⁻¹ in data set [2] (setting [12]), 43.55 M⁻¹ in data set [3] (setting [12]) and 65.15 M⁻¹ in data set [4] (setting [12]).

On to `CCN(CC)c1ccc2c(-c3ccc(C)s3)c(C=O)c(=O)oc2c1` [II-2], for which the F.E. in data set [2] (setting [12]) worked out at 47.67; in data set [3] (setting [12]), 22.18; in data set [4] (setting [12]), 32.35. The Ka was found to be 6.11 M⁻¹ in data set [2] (setting [12]), 54.61 M⁻¹ in data set [3] (setting [12]) and 58.72 M⁻¹ in data set [4] (setting [12]).

On to `CCN(CC)c1ccc2c(-c3cc(C)cs3)c(C=O)c(=O)oc2c1` [II-3], for which the F.E. in data set [2] (setting [12]) is given as 51.15; in data set [3] (setting [12]), 23.41; in data set [4] (setting [12]), 38.35. Moreover, the Ka in data set [2] (setting [12]) came out at 7.40 M⁻¹; in data set [3] (setting [12]), 51.10 M⁻¹; in data set [4] (setting [12]), 63.65 M⁻¹.

Regarding `CCN(CC)c1ccc2c(-c3ccc(Cl)s3)c(C=O)c(=O)oc2c1` [II-4], the results for the F.E. in data set [2] (setting [12]), in data set [3] (setting [12]) and in data set [4] (setting [12]) were 33.96, 12.39 and 20.78, respectively. Further, the Ka came to 5.90 M⁻¹ in data set [2] (setting [12]), 83.96 M⁻¹ in data set [3] (setting [12]) and 69.25 M⁻¹ in data set [4] (setting [12]).

Turning to `CCN(CC)c1ccc2c(-c3cc4ccccc4s3)c(C=O)c(=O)oc2c1` [II-5], the F.E. is 29.65 in data set [2] (setting [12]), 9.53 in data set [3] (setting [12]) and 16.62 in data set [4] (setting [12]). Also, the figures for the Ka in data set [2] (setting [12]), in data set [3] (setting [12]) and in data set [4] (setting [12]) were 5.25 M⁻¹, 49.26 M⁻¹ and 49.65 M⁻¹, respectively.

Turning to `CCN(CC)c1ccc2c(-c3ccccc3C(=O)O)c3ccc(=[N+](CC)CC)cc-3oc2c1.[Cl-]` [rhodamine B], in data set [8], the “absolute Φfl” value is 0.31.

Source of the values: US10330673B2, “Fluorescent chemical sensor for biological amines” (The Curators of the University of Missouri, priority 2013, dated 2019).
